Results reported in patent publication US20060252740A1 (priority 2005, published 2006).

How the values were obtained:
[1] = tested on: patients with advanced solid tumors; details: population PK analysis; cited from earlier work
[2] = tested on: adult patients with solid tumors; details: patients treated at 56 mg/m^2; cited from earlier work
clinical = assay: clinical
Method: PK assessments included the following tests. […] The total number of PK samples collected was approximately 115 mL of whole blood (7-8 tablespoons). If a patient experienced a potentially drug-related SAE, additional PK samples were collected. Blood was drawn from the contralateral arm to the infusion site using an indwelling catheter to avoid multiple needle sticks. […] The blood tube was inverted several times and the tube placed in wet ice immediately pending separation of the plasma. If a catheter was used for blood collection, the fluid in the catheter was completely withdrawn prior to each sample collection and discarded. Plasma samples were kept on wet ice during collection and centrifugation. Plasma samples were split into two cryovials prior to freezing at −70° C.

[3] = tested on: patients with advanced solid tumors; details: 80 mg/m^2 dose level, cited from earlier work
[4] = Cellular assays (potency of 17-AAG versus 17-AG); format: cell-based
MM cells = details: cited from earlier work
[5] = 17-AG metabolite, Cohorts 3 & 4, 17-AAG 150 mg/m^2, Max
[6] = 17-AG metabolite, Cohorts 3 & 4, 17-AAG 150 mg/m^2, Median
[7] = 17-AG metabolite, Cohorts 3 & 4, 17-AAG 150 mg/m^2, Min

For `CO[C@H]1/C=C\C=C(/C)C(=O)NC2=CC(=O)C(N)=C(C[C@@H](C)C[C@H](OC)[C@H](O)[C@@H](C)/C=C(\C)[C@@H]1OC(N)=O)C2=O` [17-AG, 17-aminogeldanamycin], the Clearance [1] is given as 21.3 L/h, the Clearance [2] is given as 30.8 L/h/m^2 and the VZ [2] is given as 203 L/m^2. For the same compound, the “average AUC” value [2] was 5,558 nM*h, the “average t1/2” value [2] was 8.6 h and the AUCext (clinical; [5]) was 16.0%. The AUCextra (clinical; [5]) was 2,604 ng/mL * h, the AUCtotal (clinical; [5]) was 16,323 ng/mL * h and the Lz (clinical; [5]) was 0.1512. For the same compound, the AUCext (clinical; [6]) was 5.0%, the AUCtotal (clinical; [6]) was 3,253 ng/mL * h and the Lz (clinical; [6]) was 0.1200. It also gave an AUCext (clinical; [7]) of 2.2%, an AUCtotal (clinical; [7]) of 980 ng·h/mL and a Lz (clinical; [7]) of 0.0765. The “average ratio of AUCtotal for the 17-AG to AUCtotal for the parent drug 17-AAG” value (clinical; data of Tables 2 and 3, cohorts 1-4) was 82.5±90.5%, the AUC(0-t) (clinical; human, plasma, intravenous, 100 mg/m2, AUClast, 17-AG metabolite, Cohorts 1 & 2, 17-AAG 100 mg/m^2, Mean) was 3480 ng·h/mL and the half-life (clinical; human, plasma, intravenous, Terminal elimination half-life, 17-AG metabolite, cohorts 1-4 combined) was 391 ± 104 min. The “elimination in plasma profiles” value (clinical; plasma profiles after 17-AAG infusion) was “much slower elimination”, the t1/2 [3] was 1.75 h and the Cmax ([3]; read-out: plasma Cmax) was 607 nM. The “relative potency of 17-AAG and 17-AG” value [4] was “equipotent in cellular assays”.

For `CC(C)C[C@H](NC(=O)[C@H](Cc1ccccc1)NC(=O)c1cnccn1)B(O)O` [bortezomib], the “stress response of MM cells” value (MM cells; pre-clinical studies) is given as “triggers significant Hsp90 up-regulation” and the “effect on drug resistance of MM cells” value (MM cells; preclinical and clinical studies) is given as “can overcome resistance of MM cells to conventional or high-dose cytotoxic chemotherapy”.
